Entries after “also recorded” stand apart in the source; their conditions may differ.
What was measured:
[1] = tested on: Nrf2-dependent luciferase (ARE-element of the gene AKR1C2) in KeratinoSens cell line; assay: KeratinoSens assay, luciferase gene induction (OECD TG 442d); conditions: single chemicals; for Rating in the KeratinoSens assay (skin sensitization): threshold 1.5-fold induction
Protocol: The level of skin sensitization can reliably and quantitatively be measured experimentally by the KeratinoSens® method, which measures the induction of Nrf2-dependent luciferase in a skin cell line.
(§1) Compounds were tested using the commercial KeratinoSens® assay for skin sensitization. The KeratinoSens® test compares the potential skin sensitization risk of chemicals. […] KeratinoSens® cells were grown for 24 h in 96-well plates. The medium was then replaced with medium containing the test chemical and the solvent dimethylsulfoxide (DMSO) at a final level of 1% (v/v). Each compound was tested at 12 binary dilutions in the range from 0.98 to 2000 μM. Cells were incubated for 48 h with the test agents, and then luciferase activity and cytotoxicity were determined. This full procedure was repeated three times for each chemical. For each chemical in each repetition and at each concentration, the gene induction compared to DMSO controls and the wells with statistically significant induction over the threshold of 1.5 (i.e. 50% enhanced gene activity) were determined. Furthermore, the maximal fold-induction (Imax) and the EC1.5 value (concentration in μM for induction above the threshold) were calculated.
(§2) All compositions were tested in the concentration range from 0.2-400 ppm (parts per million in weights per volume).

KeratinoSens cells = assay: Cytotoxicity / cellular viability in the KeratinoSens assay; format: cell-based; conditions: single chemicals, 48 h
Protocol: as §1, §2

[2] = target: test peptide Cor1C-420 (Ac-NKKCDLF) (Homo sapiens, UniProt Q9ULV4, I423F); assay: Modified direct peptide reactivity assay with LC-MS detection of peptide adducts; conditions: for Peptide reactivity: quantification, % of parent peptide modified: pH 7.5
Protocol: Alternatively, the sensitization potential can be quantified by measuring the reactivity of test chemicals with peptides.
It is based on the fact that allergenic chemicals must react with a peptide/protein in order to be immunogenic.
The samples were incubated for 24 h at 37° C. and analysed by LC-MS analysis on a VELOS PRO Mass spectrometer (Thermo […], San Jose, Calif., U.S.A.) operated in the ESI(+) mode.
Mass spectra were recorded from 200-2000 amu. A ZORBAX Eclipse XDB-C18 column, 2.1 mm ID, 150 mm, 5-Micron (Agilent Technologies) was used. The mobile phase consisted of H2O (A) and methanol (B) each containing 0.1% formic acid (v/v). The solvent flow was 250 μl/min and the following gradient (ratio A:B) was used: 0 min, 95:5; 2 min, 40:60; 10 min, 2:98; 12 min, 2:98. The integration was performed with Xcalibur Quan Browser™.
In order to detect formation of modified peptides, the specific ion trace for a new adduct with the mass of the test chemical added to the test peptide is extracted, and the peak of the peptide-adduct is integrated. Peptide adduct formation is a particular sensitive endpoint to determine reactive, and thus allergenic nature of compounds.

[3] = 1 mM test chemical, 0.1 mM peptide, 24 h at 37° C.

| Structure (SMILES) | Rating in the KeratinoSens assay (skin sensitization) [1] | Concentration for 50% Cytotoxicity (KeratinoSens cells) | Peptide reactivity: quantification, % of parent peptide modified ([2]; 24 h, 1 mM) | Imax (fold maximal gene induction) ([1]; 0.98 to 2000 μM, 48 h) | Concentration for 1.5-fold gene induction (EC 1.5 in μM) ([1]; 48 h, n.i. = no induction above threshold of 1.5 (negative rating)) | Peptide reactivity: adduct observation [2, 3] | Peptide reactivity: quantification, % of parent peptide modified [2, 3] | Peptide reactivity: adduct observation ([2]; 1 mM test chemical, 0.1 mM peptide, 24 h at 37° C., listed as II) | Peptide reactivity / adduct amount, fold lower as compared to Citral ([2]; relative to Citral) |
| --- | --- | --- | --- | --- | --- | --- | --- | --- | --- |
| CC(C)=CCCC(C)=CC=O [Citral, 3,7-dimethyl-2,6-octadienal, reference compound] | highly active | 95.5 µM | 8.1% of parent |  |  |  |  |  |  |
| CC(C)=CCC(C)/C=C(\C)C=O (centres unmarked) [2,4,7-trimethyl-2,6,-octadienal] | non-sensitizing; also recorded: does not surpass the threshold for a positive rating up to the top dose | 317.8 µM |  | 1.40 fold | n.i. | only traces were formed | observed, 0.3% of parent | Extremely low activity, | 27 fold |

Reference: US20190062671A1, “PERFUME COMPOSITIONS” (Givaudan SA, priority 2016, published 2019)
